From patent US20100234593A1, “Imidazo[4,5-B]Pyridine-7-Carboxamides 704” (ASTRAZENECA AB, priority 2007, published 2010)
Counter-ions that a name gives are not always drawn.

biological target: T1, recombinant human GSK3β (Homo sapiens, UniProt P49841); test: GSK3β Scintillation Proximity Assay (ATP competition); type: biochemical; conditions: SPA, 1 μM ATP, 1 μM biotinylated peptide substrate; Ki calculated with Km of ATP 20 μM
T1 construct: purchased Dundee University, UK
Description: Determination of ATP Competition in Scintillation Proximit), GSK3β Assay.
GSK3β Scintillation Proximity Assay.
The competition experiments were carried out in duplicate with 10 different concentrations of the inhibitors in clear-bottom microtiter plates (Wallac, Finland). A biotinylated peptide substrate, Biotin-Ala-Ala-Glu-Glu-Leu-Asp-Ser-Arg-Ala-Gly-Ser(PO3H2)-Pro-Gln-Leu (AstraZeneca, Lund), was added at a final concentration of 1 μM in an assay buffer containing 1 mU recombinant human GSK3β (Dundee University, UK), 12 mM morpholinepropanesulfonic acid (MOPS), pH 7.0, 0.3 mM EDTA, 0.01% β-mercaptorethanol, 0.004% Brij 35 (a […] detergent), 0.5% glycerol and 0.5 μg BSA/25 μl. The reaction was initiated by the addition of 0.04 μCi [γ-^33P]ATP (Amersham, UK) and unlabelled ATP at a final concentration of 1 μM and assay volume of 25 μl. After incubation for 20 minutes at room temperature, each reaction was terminated by the addition of 25 μl stop solution containing 5 mM EDTA, 50 μM ATP, 0.1% Triton X-100 and 0.25 mg streptavidin coated Scintillation Proximity Assay (SPA) beads (Amersham, UK). After 6 hours the radioactivity was determined in a liquid scintillation counter (1450 MicroBeta Trilux, Wallac). The inhibition curves were analysed by non-linear regression using GraphPad Prism, USA. The Km value of ATP for GSK3β, used to calculate the inhibition constants (Ki) of the various compounds, was 20 μM.

T1 sequence (P49841 whole entry): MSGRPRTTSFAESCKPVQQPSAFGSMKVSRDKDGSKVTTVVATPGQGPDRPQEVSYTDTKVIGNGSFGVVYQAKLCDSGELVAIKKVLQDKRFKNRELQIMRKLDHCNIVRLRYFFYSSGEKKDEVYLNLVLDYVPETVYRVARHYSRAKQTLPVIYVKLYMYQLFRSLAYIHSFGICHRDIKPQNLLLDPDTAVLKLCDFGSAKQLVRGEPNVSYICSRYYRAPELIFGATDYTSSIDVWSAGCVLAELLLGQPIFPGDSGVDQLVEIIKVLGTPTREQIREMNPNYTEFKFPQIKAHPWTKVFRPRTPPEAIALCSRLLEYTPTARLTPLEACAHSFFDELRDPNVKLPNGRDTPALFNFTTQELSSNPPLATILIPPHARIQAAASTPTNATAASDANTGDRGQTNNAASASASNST

| Compound | Ki |
| --- | --- |
| COCCCNC(=O)c1c(Cl)cnc2[nH]c(-c3ccc(CN4CCOCC4)cc3)nc12 [Example 14, 6-Chloro-N-(3-methoxypropyl)-2-[4-(morpholin-4-ylmethyl)phenyl]-3H-imidazo[4,5-b]pyridine-7-carboxamide] | 1400 nM |
| COCCCNC(=O)c1c(Br)cnc2[nH]c(-c3ccc(CN4CCOCC4)cc3)nc12 [Example 13, 6-Bromo-S-(3-methoxypropyl)-2-[4-(morpholin-4-ylmethyl)phenyl]-3H-imidazo[4,5-b]pyridine-7-carboxamide] | 390 nM |
| COCCCNC(=O)c1c(F)cnc2[nH]c(-c3ccc(CN4CCOCC4)cc3)nc12 [Example 21, 6-Fluoro-N-(3-methoxypropyl)-2-[4-(morpholin-4-ylmethyl)phenyl]-3H-imidazo[4,5-b]pyridine-7-carboxamide hydrochloride] | 779 nM |
